The results in this text go back to patent US20040142981A1, “Antibacterial benzoic acid derivatives” (priority 2002, published 2004).

In brackets after ≈: the same amount, converted by molar mass.

Broadly, the MIC is the lowest concentration that inhibits growth of the organism. Lower therefore signals a more susceptible organism.

The subject of the test is SAUR 9218. Nature of the test: MIC by standard agar dilution method. It counts as cell-based. To be noted: Mueller Hinton agar, incubated overnight at 35° C., lowest concentration that inhibits visible growth. On the procedure: MIC Test Method The in vitro MICs of test compounds were determined by a standard agar dilution method. A stock drug solution of each analog was prepared in the preferred solvent, usually DMSO:H2O (1:3). Serial 2-fold dilutions of each sample are made using 1.0 ml aliquots of sterile distilled water. To each 1.0 ml aliquot of drug was added 9 ml of molten Mueller Hinton agar medium. The drug-supplemented agar was mixed, poured into 15×100 mm petri dishes, and allowed to solidify and dry prior to inoculation. Vials of each of the test organisms are maintained frozen in the vapor phase of a liquid nitrogen freezer. Test cultures are grown overnight at 35° C. on the medium appropriate for the organism. Colonies are harvested with a sterile swab, and cell suspensions are prepared in Trypticase Soy broth (TSB) to equal the turbidity of a 0.5 McFarland standard. A 1:20 dilution of each suspension was made in TSB. The plates containing the drug supplemented agar are inoculated with a 0.001 ml drop of the cell suspension using a Steers replicator, yielding approximately 10^4 to 10^5 cells per spot. The plates are incubated overnight at 35° C. Following incubation the Minimum Inhibitory Concentration (MIC μg/ml), the lowest concentration of drug that inhibits visible growth of the organism, was read and recorded.
Background: In agar dilution the substance is mixed into plates at graded concentrations.
Consider `CN(c1ccc(Cl)cc1)S(=O)(=O)c1ccc(C(=O)Nc2ccc(Br)cc2NS(=O)(=O)C(F)(F)F)cc1`, for which the MIC is 32 mg/L (≈ 51 µM).
On to `O=C(Nc1ccc(Br)cc1-c1noc(=O)[nH]1)c1cccc(S(=O)(=O)N2CCc3cc(Cl)ccc32)c1` [Example 1, N-[4-Bromo-2-(5-oxo-4,5-dihydro-1,2,4-oxadiazol-3-yl)phenyl]-3-[(5-chloro-2,3-dihydro-1H-indol-1-yl)sulfonyl]benzamide], for which it took 4 mg/L (≈ 6.95 µM) to inhibit growth (MIC).
With `O=C(Nc1ccc(Br)cc1-c1noc(=O)[nH]1)c1cccc(SCc2ccccc2)c1` [Example 2, 3-(Benzylthio)-N-[4-bromo-2-(5-oxo-4,5-dihydro-1,2,4-oxadiazol-3-yl)phenyl]benzamide] the figure was 8 mg/L (≈ 16.6 µM).
Take `CN(c1ccc(Cl)cc1)S(=O)(=O)c1cccc(C(=O)Nc2ccc(Br)cc2C(=O)NS(C)(=O)=O)c1` [Example 3, N-(4-Bromo-2-{[(methylsulfonyl)amino]carbonyl}phenyl)-3-{[(4-chlorophenyl)(methyl)amino]sulfonyl}benzamide]: the MIC came out at 2 mg/L (≈ 3.33 µM).
Molecule `Cc1ccc(S(=O)(=O)NC(=O)c2cc(Br)ccc2NC(=O)c2cccc(S(=O)(=O)N(C)c3ccc(Cl)cc3)c2)cc1` [Example 4, N-[4-Bromo-2-({[(4-methylphenyl)sulfonyl]amino}carbonyl)phenyl]-3-{[(4-chlorophenyl)(methyl)amino]sulfonyl}benzamide] displayed an MIC of 8 mg/L (≈ 11.8 µM).
As for `CN(c1ccc(Cl)cc1)S(=O)(=O)c1ccc(C(=O)Nc2ccc(Br)cc2-c2nnn[nH]2)cc1` [Example 5, N-[4-Bromo-2-(1H-tetraazol-5-yl)phenyl]-4-{[(4-chlorophenyl)(methyl)amino]sulfonyl}benzamide], the minimum inhibitory concentration (MIC) was found to be 16 mg/L (≈ 29.2 µM).
Regarding `CN(c1ccc(Cl)cc1)S(=O)(=O)c1ccc(C(=O)Nc2ccc(Br)cc2-c2noc(=O)[nH]2)cc1` [Example 6, N-[4-Bromo-2-(5-oxo-4,5-dihydro-1,2,4-oxadiazol-3-yl)phenyl]-4-{[(4-chlorophenyl)(methyl)amino]sulfonyl}benzamide], 16 mg/L (≈ 28.4 µM) was the least that counted as inhibitory (MIC).
For the molecule `O=C(Nc1ccc(Br)cc1-c1noc(=O)[nH]1)c1ccc(S(=O)(=O)N2CCc3ccccc32)cc1` [Example 7, N-[4-Bromo-2-(5-oxo-4,5-dihydro-1,2,4-oxadiazol-3-yl)phenyl]-4-(2,3-dihydro-1H-indol-1-ylsulfonyl)benzamide], the MIC was 16 mg/L (≈ 29.6 µM).
With `CN(c1ccc(Cl)cc1)S(=O)(=O)c1ccc(C(=O)Nc2ccc(Br)cc2-c2n[nH]c(=S)o2)cc1` [Example 8, N-[4-Bromo-2-(5-thioxo-4,5-dihydro-1,3,4-oxadiazol-2-yl)phenyl]-4-{[(4-chlorophenyl)(methyl)amino]sulfonyl}benzamide], 4 mg/L (≈ 6.9 µM) was the least that counted as inhibitory (MIC).
As for `CN(c1ccc(Cl)cc1)S(=O)(=O)c1cccc(C(=O)Nc2ccc(Br)cc2-c2noc(=O)[nH]2)c1` [Example 9, N-[4-Bromo-2-(5-oxo-4,5-dihydro-1,2,4-oxadiazol-3-yl)phenyl]-3-{[(4-chlorophenyl)(methyl)amino]sulfonyl}benzamide], the MIC is 16 mg/L (≈ 28.4 µM).
With `O=C(Nc1ccc(Br)cc1-c1noc(=O)[nH]1)c1cccc(OCc2ccccc2)c1` [Example 10, 3-(Benzyloxy)-N-[4-bromo-2-(5-oxo-4,5-dihydro-1,2,4-oxadiazol-3-yl)phenyl]benzamide] the figure was 8 mg/L (≈ 17.2 µM).
`O=C(Nc1ccc(Br)cc1C1=Nc2ccccc2S(=O)(=O)N1)c1cccc(S(=O)(=O)N2CCOCC2)c1` [Example 11, N-[4-Bromo-2-(1,1-dioxido-2H-1,2,4-benzothiadiazin-3-yl)phenyl]-3-(morpholin-4-ylsulfonyl)benzamide] showed a minimal inhibitory concentration (MIC) of 16 mg/L (≈ 26.4 µM).
`O=C(Nc1ccc(Br)cc1-c1nc2ccccc2c(=O)[nH]1)c1cccc(S(=O)(=O)N2CCc3cc(Cl)ccc32)c1` [Example 12, N-[4-Bromo-2-(4-oxo-3,4-dihydroquinazolin-2-yl)phenyl]-3-[(5-chloro-2,3-dihydro-1H-indol-1-yl)sulfonyl]benzamide] had an MIC of 4 mg/L (≈ 6.29 µM).
